Experimental data published in patent US4013762A, “Growth promotion” (Richardson-Merrell Inc., priority 1976, dated 1977).
Read-outs that look alike come from different tables or passages of the source.

Columns and labels:
androgen receptor = target: T1, androgen receptor (Rattus norvegicus, UniProt P15207); experiment: Androgen binding: competitive binding with 3H-testosterone labeled cytosol receptor sites, rat prostate cytosol
T1 construct: male rats were castrated and the prostate cytosol was prepared; from tissue; host or cells: prostate cytosol of castrated male rats, prepared 24 to 48 hours after surgery
T1 sequence (P15207 1-902): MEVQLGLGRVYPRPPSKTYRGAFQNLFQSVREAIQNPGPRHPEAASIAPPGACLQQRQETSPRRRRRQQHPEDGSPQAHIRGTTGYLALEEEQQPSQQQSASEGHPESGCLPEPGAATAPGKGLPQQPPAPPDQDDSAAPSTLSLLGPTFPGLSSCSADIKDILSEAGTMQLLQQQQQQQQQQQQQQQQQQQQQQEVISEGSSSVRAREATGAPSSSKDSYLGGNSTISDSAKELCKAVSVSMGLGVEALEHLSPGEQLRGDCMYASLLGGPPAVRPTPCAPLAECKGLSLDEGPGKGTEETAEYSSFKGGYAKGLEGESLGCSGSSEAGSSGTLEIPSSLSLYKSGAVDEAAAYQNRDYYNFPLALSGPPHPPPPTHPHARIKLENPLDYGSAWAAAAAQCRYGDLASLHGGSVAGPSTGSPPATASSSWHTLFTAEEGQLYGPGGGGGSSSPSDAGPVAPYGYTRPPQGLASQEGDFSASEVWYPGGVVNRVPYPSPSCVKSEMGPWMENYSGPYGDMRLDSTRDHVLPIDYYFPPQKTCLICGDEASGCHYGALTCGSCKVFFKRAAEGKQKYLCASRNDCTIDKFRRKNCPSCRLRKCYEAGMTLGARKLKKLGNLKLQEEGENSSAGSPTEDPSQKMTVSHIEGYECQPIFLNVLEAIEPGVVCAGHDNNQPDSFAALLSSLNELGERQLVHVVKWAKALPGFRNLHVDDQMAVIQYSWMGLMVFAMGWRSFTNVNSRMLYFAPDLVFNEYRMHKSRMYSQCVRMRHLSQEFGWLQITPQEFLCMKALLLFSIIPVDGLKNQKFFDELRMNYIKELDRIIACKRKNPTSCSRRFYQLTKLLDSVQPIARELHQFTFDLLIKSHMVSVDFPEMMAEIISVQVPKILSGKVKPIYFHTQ
Source text: This binding is the first step necessary for hormonal action.

[1] = test system: ten day old leghorn chicks; experiment: Chick weight gain, subcutaneous treatment for six days; format: in vivo; conditions: for Weight Gain (g ± S.E.M.): gain during one week, control 52.7 ± 1.6, * significantly different from controls, p <- 0.05
poultry and ruminants [2] = experiment: Growth promotion in animals; format: in vivo; conditions: applicant's findings
[3] = reported in U.S. Pat. Nos. 3,235,573 and 3,449,381; cited from earlier work
muscle fiber [4] = experiment: Masculinizing effect on the muscle fiber; format: in vivo; conditions: applicant's findings
poultry and ruminants [5] = conditions: background, known; cited from earlier work
muscle fiber [6] = conditions: background, known; cited from earlier work

## C[C@]12CC[C@H]3[C@@H](CCC4=CC(=O)CC[C@@]43C=O)[C@@H]1CCC2=O [3,17-Dioxoandrost-4-en-19-al, 3,17-dioxoandrost-4-en-19-al]
Androgen receptor; in vitro, androgen target tissue
  androgen receptor binding: lack of androgen binding affinity
Androgen receptor; relative to 5α-dihydrotestosterone equated to 100, 4 × 10^-6 to 4 × 10^-10 molar, castrated male rat prostate cytosol
  % Binding (androgen binding, relative): 0.07%
[1]; 1 mg/kg/day subcutaneously for six days
  Weight Gain (g ± S.E.M.): 58.8 ± 1.4 g
[1]; 10 mg/kg/day subcutaneously for six days
  Weight Gain (g ± S.E.M.): 63.0 ± 1.1 g
[1]; 30 mg/kg/day subcutaneously for six days
  Weight Gain (g ± S.E.M.): 74.0 ± 2.6 g
[1]; 1.0, 10 and 30 mg/kg/day s.c. six days, compared to untreated control chicks
  growth rate as measured by weight gain: significant increase in growth rate

## C[C@]12CC[C@H]3[C@@H](CCC4=CC(=O)CC[C@@]43C=O)[C@@H]1CC[C@@H]2O [3-oxo-17β-hydroxyandrost-4-en-19-al]
Poultry and ruminants [2]
  growth promotion: effective in growth promotion in animals
[3]
  anabolic-androgenic activity: anabolic-androgenic activity
Muscle fiber [4]
  masculinizing effect on the muscle fiber: without any masculinizing effect on the muscle fiber

## CSCCC(O)C(=O)O (stereo not drawn) [α-hydroxy-γ-methylmercaptobutyric acid]
Poultry and ruminants [5]
  growth promotion: promote growth by improving feed efficiency

## CCC(=O)O[C@H]1CC[C@H]2[C@@H]3CCC4=CC(=O)CC[C@]4(C)[C@H]3CC[C@]12C [testosterone propionate]
Poultry and ruminants [5]
  growth promotion: effective in promoting growth in animals
Muscle fiber [6]
  masculinization of the muscle fiber: masculinization of the muscle fiber
